Measured values reported in patent publication US20220017863A1, “SIRT2-ABLATED CHIMERIC T CELLS” (H. Lee Moffitt Cancer Center and Research Institute, Inc., priority 2019, published 2022).

Tested on: human TILs
Assay: Seahorse extracellular flux analysis of CD3-stimulated human TILs from NSCLC patients
Format: cell-based
Details: anti-CD3 plus AGK2 vs vehicle, 48 hr
Experimental: Human tumor infiltrating lymphocytes (hTILs) samples isolated from tumor biopsies of patients with nonsmall cell lung cancer (NSCLC) were generously provided by Dr. Antonia lab (Moffitt Cancer Center). All human samples remained totally de-identified and no Institutional Review Board (IRB) approval was needed.
hTILs were maintained in RPMI 1640 Medium, supplemented with 10% human AB serum (Valley Biomedical, Inc.), 1 mM Hepes (Sigma-Aldrich), 1% P/S (Thomas Scientific Inc), 50 μg/ml Gentamicin (ThermoFisher Scientific), 50 μM […] (ThermoFisher Scientific) and 6000 U/ml of recombinant human IL-2 (Peprotech).
Extracellular acidification rates (ECAR) were measured using the Seahorse XF analyzer (Agilent). […]
For GST, ECAR was measured under basal conditions and in response to 10 mM glucose, 1 μM oligomycin and 50 mM 2-DG successively to calculate basal glycolytic rate, glycolytic capacity (in response to oligomycin), and glycolytic reserve (glycolytic capacity−basal rate). For GRA, ECAR was measured under basal conditions and in response to 0.5 μM rotenone+0.5 μM antimycin A and 50 mM 2-DG successively to calculate basal glycolysis and compensatory glycolysis (in response to rotenone+antimycin A). Results were normalized to total protein quantified using Pierce™ BCA Protein Assay Kit (ThermoFisher Scientific). […]

**Q.** Which results are given for `N#C/C(=C/c1ccc(-c2cc(Cl)ccc2Cl)o1)C(=O)Nc1cccc2ncccc12` [AGK2]?
**A.** OxPhos (OCR) (human TILs from 5 NSCLC patients): increased; aerobic glycolysis (ECAR) (human TILs from NSCLC patients, 5 patient samples): increases
